{
  "source": "patent US20020160066A1",
  "about": "“Composition and methods containing an antimicrobial essential oil extracted from Coleus forskohlii” (priority 2001, published 2002)",
  "key": {"Staphylococcus aureus": {"test_system": "Staphylococcus aureus", "test": "Second study, disk clearance zone, Staphylococcus aureus", "type": "cell-based", "settings": "30 μg/disk", "description": "Determination of the antimicrobial activity of the composition. The sensitivity of Propionbacterium acnes a microorganism associated with acne and other skin infections (Nishijima, et al. (2000)), Staphylococcus aureus a bacterial strain found in infected wounds and skin eruptions including acne (Nishijima, et al. 1994)), Staphylococcus epidermidis a bacterial strain occurring in a variety of opportunistic bacterial skin infections and in acne (Nishijima, S. et al. (2000)) and Streptococcus mutans, a bacterial strain associated with the progression of dental caries (Sanchez-Perez, L. et al. (2001)), Candida albican, and Streptococcus epidermidis; to Coleus forskohlii oil using disk diffusion methodology was determined. One strain each of Propionbacterium acnes (ATCC 11827), Staphylococcus aureus (ATCC 29213), Streptococcus mutans (ATCC 25175), and Staphylococcus epidermidis (ATCC 14990) Candida albicans (ATCC 11006) and Streptococcus epidermidis (ATCC 14990) were obtained from ATCC. Propionbacterium acnes culture were grown in Reinforced Clostridia media under anaerobic conditions at 37° C. for 24 hours. Staphylococcus aureus, Streptococcus mutans and Staphylococcus epidermidis cultures were cultured in Trypticase Soy Broth under aerobic conditions at 37° C. for 24 hours. […] Inhibition zones were measured to the closest one tenth of one millimeter using a caliper. […]"}, "E. coli": {"test_system": "E. coli", "test": "Second study, disk clearance zone, E. coli", "type": "cell-based", "settings": "Escherichia coli; 30 μg/disk"}},
  "data": [
    {"compound": "O=C(N[C@H](CO)[C@H](O)c1ccc([N+](=O)[O-])cc1)C(Cl)Cl", "note": "[Chloramphenicol]", "values": [
      {"measurement": "zone of inhibition at 30 µg/disc", "setting": "Staphylococcus aureus", "value": 20, "unit": "mm"},
      {"measurement": "zone of inhibition at 30 µg/disc", "setting": "E. coli", "value": 34, "unit": "mm"}
    ]}
  ]
}
